From patent publication US7053043B1, “Pharmaceutical compositions comprising synthetic peptide copolymers and methods for preventing and treating GVHD and HVGD” (Yeda Research and Development Co.Ltd., priority 1999, dated 2006)
Values joined by “and” are separate entries in the source; they are usually repeats but may differ in a detail not shown here. Equal entries are not always repeated.

What was measured:
[1] = tested on: proliferation of B10.PL (H-2u) responder cells to BALB/c stimulator cells; test: Mixed lymphocyte reaction (MLR) across major histocompatibility barriers, B10.PL vs BALB/c; type: cell-based, mice; conditions: 20 μg/well, Cop 1 Batch I, 1:1 ratio of responder to stimulator cells
Procedure: (§1) Responder cells for MLR reactions across major histocompatibility barriers were harvested from spleen of non-immunized mice while responder cells for MLR across minor histocompatibility barriers were harvested from mice which were preimmunized with irradiated (30 Gy) 50×10^6 stimulator spleen cells 21 days before. Responder cells (5×10^5 spleen cells per well) were tested for their proliferative response by plating with different amounts (2.5 to 10×10^5) of irradiated stimulator cells, in presence or absence of various peptide inhibitors (10–100 μg per well). Cultures were set up in 200 μl media containing 10% FCS in flat-bottom microtiter plates. After 4 days of incubation, cultures were pulsed with 1 μCi of [^3H]thymidine for an additional 16 hours. Results are represented as mean counts per minute (cpm) thymidine incorporation from triplicate cultures.
To investigate the feasibility of inhibition of MLR by Copolymer 1, an MLR system was developed in which Copolymer 1 was tested for its ability to inhibit the proliferation of B10.PL (H-2^u) responder cells to stimulator cells of either the same (PL/J) or different (BALB/c) H-2 haplotype. For comparison, the inhibitory MBP Ac 1-11[4A], MBP 35-47, a combination of Ac 1-1[4A]+MBP 35-47, MBP 89-101 and KM-core peptides, described in Schlegel et al. (1994), were used in the MLR experiments.
The inhibition obtained by Copolymer 1 was similar (in response to minor histocompatibility antigen) or even higher (in response to major histocompatibility antigen) than the inhibition obtained with the combination of the two synthetic peptides Ac 1-11[4A] and MBP 35-47, which specifically bind to the class II molecules I-A^u and the I-E^u, respectively. The molar efficiency of Copolymer 1 of M.W. 6000 is even higher since the molecular weight of the synthetic peptides is 4–5 fold lower.

[2] = tested on: T cell proliferation in MHC-disparate mixed lymphocyte cultures; test: Mixed lymphocyte cultures across major histocompatibility barriers, six MHC-disparate strain combinations; type: cell-based, mice
Procedure: as §1

[3] = tested on: B10.D2 responder spleen cells with irradiated C57BL/6 spleen stimulator cells; test: MLR primary assay, Table 1; type: cell-based, mice; conditions: [3H]-thymidine after 96 hours
Procedure: The effect of Copolymer 1 (Batch I) on mixed lymphocyte cultures across major histocompatibility barriers was tested. T cell proliferation was assessed in six different MHC-disparate strain combinations. […] To exclude the possibility that higher concentrations of Copolymer 1 (50–100 μg/well) might be toxic to the responder cells, responder cells from background well and from wells incubated with 25–100 μg/well of Copolymer 1 in the presence of stimulator cells for 72 hours in a primary assay, were rechallenged in a subsequent secondary assay with IL-2 (5,000 U/well).

[4] = tested on: GVHD in B10.D2 → BALB/c recipients; test: Murine lethal GVHD model after bone marrow transplantation, B10.D2/nSnJ→BALB/c; type: in vivo, mice; conditions: for overall incidence of GVHD: 600 μg per injection (ip + sc)
Procedure: The murine GVHD model of B10.D2/nSnJ→BALB/c mice (both H-2^d) across minor histocompatibility barriers, was selected since it is similar to the MHC matched bone marrow transplantation in humans. For the induction of GVHD, 10×10^6 bone marrow and 100×10^6 spleen cells from B10.D2 mice were injected into lethally irradiated (8.0 Gy) BALB/c recipients. […] Recipient mice were 12–13 weeks at the time of transplantation.
Based on previous studies with Cop 1 in EAE (Sela et al., 1990; Teitelbaum et al., 1971; Teitelbaum et al., 1973) and class II-binding competitor peptides in GVHD (Schlegel et al., 1994), the dosage of 600 μg per injection was selected, half of which was administered intraperitoneally (ip), whereas the other half was given subcutaneously (sc). Treatment of BALB/c recipient mice was initiated on day −1, followed by daily injections for the first five weeks starting on day 0 after transplantation. The frequency of injections was tapered to three times per week for the subsequent two weeks and to two times per week for another two weeks and then discontinued. Throughout the experiment, copolymers and controls were administered once a week with incomplete Freund's adjuvant (IFA) ip as a depot dose (Schlegel et al., 1994). Treatment was discontinued 9 weeks after transplantation.
Mice were followed up daily for 140 days after bone marrow transplantation for signs of GVHD. Disease severity was assessed by mortality, loss of body weight, and by the extent of macroscopic skin involvement scored on a cumulative scale (from min O— max 8): head 1, neck 1, back (1/3, 2/3, 3/3) 1–3, front (1/3, 2/3, 3/3) 1–3. Skin biopsies were examined as previously described (Schlegel et al., 1994).
(ii) Effect of Copolymer 1 Treatment on the Incidence, Onset and Severity of GVHD. […] For the first five weeks after transplant mice were injected daily as outlined in Materials and Methods, followed by a tapering schedule over an additional four weeks.
(iii) Effect of Copolymer 1 treatment on survival. […]

skin graft rejection = test: Skin graft transplantation model for HVGD; type: in vivo, mice
Procedure: Recipient mice were dorsally transplanted with circular pieces of donor skin. Mice were inspected daily. Grafts were considered rejected when no viable donor epidermis remained. The results are expressed in mean survival time (MST). P values were obtained by analysis of variance (ANOVA).
[…] The first Cop 1 treatment on day −7 was injected sc in ICFA as a depot dose. Control mice were treated daily with PBS alone and PBS with ICFA on day −7 before transplantation.
Grafts were inspected daily. Rejection was considered positive when no viable donor epidermis remained. […]

Glatiramer acetate [Cop 1]
inhibition of MLR [1]: 77%
inhibitory effect on the MLC ([2]; 10–100 μg/well, all concentrations tested): dose-dependent inhibition
concentration sufficient to achieve 50% inhibition of the proliferative responses ([2]; Batch I): 10–25 μg/well
Maximum inhibition ([2]; all strain combinations tested): 100%
Primary Assay cpm ([3]; Cop 1 25 μg/well (Batch I)): 15,953 cpm
Primary Assay cpm ([3]; Cop 1 50 μg/well (Batch I)): 3,663 cpm
Primary Assay cpm ([3]; Cop 1 100 μg/well (Batch I)): 283 cpm
long-term survival from lethal graft-versus-host disease ([4]; 600 μg per injection): improved long-term survival
animals (without GVHD) to the observation period of 140 days after transplant ([4]; 600 μg per injection, Batch I): Nine of 25
mice survived more than 140 days after transplant ([4]; 600 μg per injection, Batch I): 56%
overall disease severity (disease severity score, mean body weight curves) ([4]; 600 μg per injection, Batch I): improved overall disease severity
overall incidence of GVHD ([4]; day 30 after transplant, Cop 1 Batch I): 12%
overall incidence of GVHD ([4]; day 70 after transplant, Cop 1 Batch I): 48%
median onset of GVHD ([4]; days after transplant, 600 μg per injection): 73 days
onset of GVHD, range ([4]; days after transplant, in 12/25 treated animals, 600 μg per injection): 32 to 112 days
mice survived more than 140 days after transplant ([4]; survivors/treated, 600 μg per injection, Cop 1 Batch I): 14/25
MST ± SD (Mean Survival Time of skin graft) (skin graft rejection; B10.D2 → BALB/c, H-2d, Cop 1 600 μg/day (ip+sc) from day −7): 20.6 days and 20.6 ± 3.3 days
MST ± SD (Mean Survival Time of skin graft) (skin graft rejection; B10.D2 → BALB/c, H-2d, Cop 1 600 μg/day (ip+sc) from day −7, listed as Copolymer 1): 20.6 days
mean graft survival time (MST) (skin graft rejection; B10.D2 → BALB/c, 600 μg/day, text refers to Table 6, PBS 26 days): 34 days
MST ± SD (Mean Survival Time of skin graft) (skin graft rejection; B10.D2 → BALB/c, Cop 1 300 μg/day): 20.4 ± 4.5 days
MST ± SD (Mean Survival Time of skin graft) (skin graft rejection; B10.D2 → BALB/c, Cop 1 300 μg/day, listed as Copolymer 1): 20.4 days
MST ± SD (Mean Survival Time of skin graft) (skin graft rejection; B10PL → PL/J, H-2u, Cop 1 600 μg/day): 17.6 ± 5.1
MST ± SD (Mean Survival Time of skin graft) (skin graft rejection; C57BL → C3HSW, H-2b → H-2d, Cop 1 600 μg/day): 18.5 ± 3.3
MST ± SD (Mean Survival Time of skin graft) (skin graft rejection; Haplotype H-2b, Cop 1 600 μg/day): 17.7 ± 2.1
